Assay results reported in PMC5382548 (Scientific Reports, 2015).
Read-outs that look alike come from different tables or passages of the source.

Experiments:
[1] = tested on: HCT116 (colon); assay: MTS short-term cytotoxicity assay, HCT116; type: cell-based, human
Experimental: (§1) Short-term anti-proliferative assays were carried out by two different assays using a panel of human cancer and non-malignant human cell lines. […] The transformed human embryonic kidney cell line HEK293T (wt KRAS) was sensitive to all tested drugs, including TMPyP4, a cationic porphyrin established as a G4 ligand, as well as the anticancer drug 5-fluorouracil (5-FU).
HCT116 human colon carcinoma cells, SW620 human colorectal adenocarcinoma and HEK293 T human embryonic kidney cells were grown in Dulbecco's modified Eagle's medium (DMEM) supplemented with 10% fetal bovine serum, and 1% antibiotic/antimycotic (Invitrogen, Grand Island, NY, USA) and maintained at 37°C in a humidified atmosphere of 5% CO2. Cells were seeded in 96 well plates at 5.000 cells/well. Twenty-four hours after cell plating, media was removed and replaced with fresh media containing test compounds and 5-FU (Sigma), a common cytotoxic agent used in colon cancer treatmen, or vehicle control (DMSO). Following 72 h of compound exposure, cell viability was evaluated using the CellTiter 96 AQueous Non-Radioactive Cell Proliferation Assay (Promega, Madison, WI, USA), using 3-(4,5-dimethylthiazol-2-yl)-5-(3-carboxymethoxyphenyl)-2-(4-sulfophenyl)-2H-tetrazolium, inner salt (MTS) as previously described. Cell viability data were expressed as mean ± SEM or mean ± SD from at least three independent experiments. IC50 and IC65 values were determined using GaphPad Prism v.5.00 (GraphPad Software). (Performed at Cell Function and Therapeutic Targeting Group, iMed.ULisboa)

[2] = tested on: MCF7 (breast); assay: SRB short-term cytotoxicity assay, MCF7; type: cell-based; conditions: Homo sapiens, 96 h
Experimental: as §1
Human cell lines, breast carcinoma (MCF7), lung carcinoma (A549), pancreatic cancer (MIA PaCa2, Panc-1), immortalised telomerase-negative human lung fibroblast (ALT) and normal human lung fibroblast (WI-38), were all purchased from American Type Cell Culture (ATCC). Cell lines were maintained in appropriate medium supplemented with 10% fetal bovine serum (Invitrogen, UK), 2 mM L-glutamine (Invitrogen, Netherlands), and other components as specified by the suppliers. All cell lines were maintained at 37°C, 5% CO2, and routinely passaged. Short-term growth inhibition was measured using the SRB assay as described previously[43] (additional details described in Supplementary Information). […]
Sulforhodamine B (SRB) short-term cytotoxicity assay
Cells were seeded at appropriate densities into the wells of 96 well plates in their corresponding medium and incubated overnight to allow the cells to attach. Subsequently cells were exposed to various concentrations of freshly made solutions of drugs and incubated for 96 h. The cells were subsequently fixed with ice-cold trichloacetic acid (TCA) (10%, w/v) for 30 min and stained with 0.4% SRB dissolved in 1% acetic acid for 15 min.
All incubations were carried out at room temperature except for TCA fixation, which was at 4 °C. […]
After electrophoretic transfer onto nitrocellulose membranes, immunoblots were blocked with 5% milk solution, and next incubated overnight at 4 °C with primary mouse monoclonal antibody reactive to KRAS/p53 (#sc-30/sc-126; Santa Cruz Biotechnology Inc., Santa Cruz, CA, USA). […] Steady-state protein levels were expressed as mean ±SEM from at least three independent experiments.

[3] = Homo sapiens, HCT-116, MTS assay, 72 h, read-out: IC50 HCT116

SMILES | IC50 ([1]; Homo sapiens, HCT-116, 72 h, read-out: IC50 HCT116, MTS assay, 72 h) | IC50 ([1]; read-out: IC50 HCT116, MTS assay, 72 h) | IC50 [2] | IC50 [1, 3]
C[n+]1ccc(-c2c3nc(c(-c4cc[n+](C)cc4)c4ccc([nH]4)c(-c4cc[n+](C)cc4)c4ccc([nH]4)c(-c4cc[n+](C)cc4)c4nc2C=C4)C=C3)cc1 [TMPyP4, reference compound] | 12300 nM | 12400 nM | – | –
CCN(CC)CCCNc1ccc2c(c1)c1[nH]c3ccccc3c1c[n+]2C [2d] | – | – | 2400 nM | 460 nM
CCN(CC)CCCNc1ccc2c(c1)[nH]c1c2c[n+](C)c2ccc(NCCCN(CC)CC)cc12.[Cl-] [3e] | – | – | 11400 nM | 1800 nM
Cn1cc2c3ccccc3nc-2c2cc(Br)ccc21 [2a, 2-bromo-5-methyl-indolo[3,2-c]quinoline] | – | – | 2880 nM | 140 nM
CCN(CC)CCCNc1ccc2[nH]c3c(c[n+](C)c4ccc(NCCCN(CC)CC)cc34)c2c1.[Cl-] [3d] | – | – | – | 3460 nM
